Consider 78 compounds from a melting point compilation (Tetko et al.).

`COc1cc(CC2C(=O)NC(=N)N2C)ccc1O` (stereo not drawn): the melting point (as a rule, the temperature, or range, at which the solid turns liquid) lay in the range of 231 to 233 °C.
Compound `O=C1CCN(C(=O)c2ccccc2)CC1` registered a melting point of 56 to 59 °C.
`CCOC(=O)c1cc2ccccc2o1` returned a melting point of 30.5 °C.
Regarding `Clc1ccc(CSc2ccc(Cl)cc2)cc1`, the melting point stood at 75 °C.
Under `O=C(NCCc1ccccn1)c1cc([N+](=O)[O-])cc([N+](=O)[O-])c1` stands 120 °C; under `COC(=O)c1ccc(N(C)C)cc1`, 100 °C; under `C#CCCCCCCCCCCCC`, 0 °C.
Turning to `CCCOC1CCC2C3CCC4=CC(=O)CCC4(C)C3CCC12C` (stereo not drawn), the melting point fell in the range of 117 to 119 °C.
Regarding `COc1ccccc1-c1nnc2n1NC(c1ccccc1O)S2` (stereo not drawn), the melting point was 205 °C.
`Nc1nn2c(-c3ccccc3)cc(=O)[nH]c2c1/N=N/c1ccc(Cl)cc1` came in with a melting point of 312 °C.
For `CC(C)OC(=O)COc1cc(Cl)c(Cl)cc1Cl` the value was 45 °C; for `O=Nc1c(Cl)cccc1Cl`, 172 °C.
Regarding `N#Cc1cccnc1Sc1ccccc1`, the melting point was in the range of 105 to 107 °C.
In the case of `Nc1ccc2[nH]c(C(F)(F)F)nc2c1`, the melting point came to 188 °C.
`COc1ccc(F)c(C=O)c1OC` displayed a melting point of 46 °C.
`CCCCCCCCCCCCCCCCCCCCCCCCCCO` yielded a melting point of 80 °C.
Under `Cn1c(=O)c2[nH]cnc2n(C)c1=O` stands 270 °C.
Compound `CC1CCC(O)CC1=CC=C1CCCC2(C)C1CCC2C(C)C=CC(C)C(C)C` (stereo not drawn) had a melting point of 126 °C.
Under `CCCCCn1c(O)nnc1S` stands 146 to 149 °C; under `Nc1ccc(Cl)nc1Cl`, 122 to 123 °C; under `O=Cc1ccc2sccc2c1`, 53 to 54 °C.
`Cn1c(=O)c(C2=NNC(=O)C2=CNc2ncccn2)c(O)c2ccccc21` registered a melting point of 279 °C.
Compound `O=C1c2ccccc2C2NCCCN12` (stereo not drawn) returned a melting point of 130 to 132 °C.
In the case of `O=c1[nH]c2ccc([N+](=O)[O-])cc2c(=O)o1`, the melting point is 259 to 263 °C.
In the case of `O=C(O)C1=CC(Cl)=C(Cl)[C@H](O)[C@@H]1O`, the melting point was 195 to 200 °C.
`Cn1c(=O)c(C2=NNC(=O)C2=CNc2ccc(Br)cc2)c(O)c2ccccc21` returned a melting point of 293 °C.
In turn, `CC(C)c1nc2ccccc2[nH]1` registered a melting point of 235 °C.
For `O=C(O)C(F)=Cc1ccccc1` the value was 158 °C; for `O=C1CCC(c2ccccc2)c2ccccc21` (stereo not drawn), 73 to 76 °C; for `COC1C(O)C(C)OC(OC2CCC3(C=O)C(CCC4C3CCC3(C)C(C5=CC(=O)OC5)CCC43O)C2)C1O` (stereo not drawn), 162 °C.
Under `OCC1OC(O)CC(O)C1O` (stereo not drawn) stands 150 °C.
Under `C=CC=C(C=C1C(=O)NN=C1c1c(O)c2ccccc2n(C)c1=O)C(Cl)=CC` stands 260 °C; under `COC(=O)c1cc(C(=O)OC)c(C(=O)OC)cc1C(=O)OC`, 144 °C.
Turning to `O=C(O)C1=NN(c2ccccc2)C(=O)C1=CC1C(=O)N(c2ccccc2)N=C1C(=O)O` (stereo not drawn), the melting point lay in the range of 257 to 260 °C.
`Cc1ccc(C)c(N/N=C(/C#N)c2nc(C)c(/N=N/c3ccccc3)s2)c1` gave a melting point of 201 to 203 °C.
Under `COc1cc(C)c2c(c1)CC2=O` stands 83 °C; under `CCOC(=O)c1cnc2cc(OCC(C)C)c(OCC(C)C)cc2c1O`, 290 °C; under `O=C1CCC2C3CCC(=O)C3C12` (stereo not drawn), 65 to 69 °C.
Under `Cc1nc([N+](=O)[O-])c(Br)[nH]1` stands 256 to 257 °C; under `O=C(OCC(=O)N1CCC1C(=O)O)c1ccccc1` (stereo not drawn), 150 °C; under `CC(C)(C)c1nc2ccccc2[nH]1`, 320 °C.
Under `Cc1ccc(C(=O)O)cc1I` stands 208 °C; under `CC(=O)c1cc2cc(Cl)ccc2o1`, 97 to 98 °C.
Take `CCOC(=O)C(N)=O`: the melting point lay in the range of 112 to 115 °C.
For `Cc1ccc(C(=O)c2csc(S(N)(=O)=O)c2)cc1` the value was 176 °C.
Compound `CCCC(C)CC(C)O` (stereo not drawn) displayed a melting point of -102 °C.
For `Cc1csc(NS(=O)(=O)c2ccc(N)cc2)n1` the value was 237 °C.
For `C[Si](c1ccccc1)(c1ccccc1)[Si](C)(c1ccccc1)c1ccccc1` the value was 138 to 140 °C; for `O=C(O)c1cc(Oc2ccc(C(F)(F)F)cc2Cl)ccc1[N+](=O)[O-]`, 155 °C.
Under `O=C(Oc1cccc2c1CCC2=O)c1ccccc1` stands 78 to 80 °C; under `O=C(Nc1ccc(Cl)cc1)Nc1ccc(Cl)c(Cl)c1`, 256 °C.
In turn, `C=C1C(=CC=C2CCCC3(C)C2CCC3C(C)CCCC(C)(C)O)CC(O)CC1O` (stereo not drawn) displayed a melting point of 115 °C.
Under `COc1ccc(F)cc1C=O` stands 41 to 46 °C; under `O=[N+]([O-])c1ccccc1N1CSc2nnc(-c3cccnc3)n2C1`, 159 °C.
Regarding `CC1(C(=O)O)CC2C=CC1C2` (stereo not drawn), the melting point was found to be 80 °C.
`O=S(=O)(c1ccc(N=C=S)cc1)N1CCCCC1` displayed a melting point of 126 to 127 °C.
Regarding `Cc1ccc2sc(C(=O)CBr)c(C)c2c1`, the melting point lay within 123 to 125 °C.
Under `CCOC(=O)C1=C(COCCN)NC(C)=C(C(=O)OC)C1c1ccccc1Cl` (stereo not drawn) stands 178 °C.
On to `CCCCCCC(C=O)=Cc1ccccc1`, for which the melting point was 39.2 °C.
In turn, `ClC1=C(Cl)C2(Cl)C3C4OC4C(Cl)C3C1(Cl)C2(Cl)Cl` (stereo not drawn) showed a melting point of 160 °C.
In turn, `O=C(O)CCc1ccc2c(c1)CCC(=O)N2` yielded a melting point of 234 °C.
For `Nn1c(S)nnc1C(F)(F)F`, the melting point was found to be 141 °C.
`CSc1nnc(N)s1` returned a melting point of 176 to 180 °C.
`Cc1c(N)cc([N+](=O)[O-])cc1C(N)=O` showed a melting point of 199 °C.
The compound `N#CCON=C(C#N)c1ccccc1` gave a melting point of 55 °C.
In turn, `COc1ccc(C(=O)O)c(O)c1` yielded a melting point of 157 to 159 °C.
In turn, `O=Cc1c(O)cc(Cl)cc1Cl` registered a melting point of 52 °C.
Consider `Cn1c(=O)c(C2=NNC(=O)C2=CC=Cc2ccccc2)c(O)c2ccccc21`, for which the melting point came out at 238 °C.
Compound `CCCCCCCCSCCCCCCCC` gave a melting point of 0.5 °C.
Under `COC(=O)c1ccc2ccccc2c1` stands 77 °C.
For `Cc1cccc(CO)c1[N+](=O)[O-]` the value was 42 to 48 °C.
Under `N#Cc1c(C2CCCCC2)[nH]c(=S)[nH]c1=O` stands 300 °C.
Turning to `CCCCCCCCSCCO`, the melting point was determined as 0 °C.
Regarding `CC(=O)Nc1nccs1`, the melting point fell in the range of 204 to 208 °C.
`CC(C)COC(=O)c1ccccc1C(=O)OCC(C)C` yielded a melting point of -64 °C.
As to `CC(C)(C)OC(=O)N1CCCC(Oc2ccccc2[N+](=O)[O-])C1` (stereo not drawn), the melting point lay in the range of 74 to 75 °C.
Take `CCOC=C(C#N)S(=O)(=O)c1ccccc1`: the melting point came to 74 °C.
Under `O=C(O)C(F)(F)C(F)(F)C(F)(F)C(F)(F)C(F)(F)C(F)(F)C(F)(F)C(F)(F)C(F)(F)C(F)(F)C(F)(F)C(F)(F)F` stands 118 to 122 °C.
